Measurements as given in ChEMBL document CHEMBL3272185, “Synthesis and enzymic activity of some novel xanthine oxidase inhibitors. 3-Substituted 5,7-dihydroxypyrazolo(1,5-alpha)pyrimidines” (J Med Chem, 1976).

Tests used:
[1] = biological target: T1, Xanthine dehydrogenase/oxidase (Bos taurus, UniProt P80457); test: Inhibition of bovine milk xanthine oxidase using xanthine as substrate at 10 times I50 preincubated for 20 mins at 25 degC measured after 10 fold dilution relative to control; conditions: cattle
T1 sequence (P80457 whole entry): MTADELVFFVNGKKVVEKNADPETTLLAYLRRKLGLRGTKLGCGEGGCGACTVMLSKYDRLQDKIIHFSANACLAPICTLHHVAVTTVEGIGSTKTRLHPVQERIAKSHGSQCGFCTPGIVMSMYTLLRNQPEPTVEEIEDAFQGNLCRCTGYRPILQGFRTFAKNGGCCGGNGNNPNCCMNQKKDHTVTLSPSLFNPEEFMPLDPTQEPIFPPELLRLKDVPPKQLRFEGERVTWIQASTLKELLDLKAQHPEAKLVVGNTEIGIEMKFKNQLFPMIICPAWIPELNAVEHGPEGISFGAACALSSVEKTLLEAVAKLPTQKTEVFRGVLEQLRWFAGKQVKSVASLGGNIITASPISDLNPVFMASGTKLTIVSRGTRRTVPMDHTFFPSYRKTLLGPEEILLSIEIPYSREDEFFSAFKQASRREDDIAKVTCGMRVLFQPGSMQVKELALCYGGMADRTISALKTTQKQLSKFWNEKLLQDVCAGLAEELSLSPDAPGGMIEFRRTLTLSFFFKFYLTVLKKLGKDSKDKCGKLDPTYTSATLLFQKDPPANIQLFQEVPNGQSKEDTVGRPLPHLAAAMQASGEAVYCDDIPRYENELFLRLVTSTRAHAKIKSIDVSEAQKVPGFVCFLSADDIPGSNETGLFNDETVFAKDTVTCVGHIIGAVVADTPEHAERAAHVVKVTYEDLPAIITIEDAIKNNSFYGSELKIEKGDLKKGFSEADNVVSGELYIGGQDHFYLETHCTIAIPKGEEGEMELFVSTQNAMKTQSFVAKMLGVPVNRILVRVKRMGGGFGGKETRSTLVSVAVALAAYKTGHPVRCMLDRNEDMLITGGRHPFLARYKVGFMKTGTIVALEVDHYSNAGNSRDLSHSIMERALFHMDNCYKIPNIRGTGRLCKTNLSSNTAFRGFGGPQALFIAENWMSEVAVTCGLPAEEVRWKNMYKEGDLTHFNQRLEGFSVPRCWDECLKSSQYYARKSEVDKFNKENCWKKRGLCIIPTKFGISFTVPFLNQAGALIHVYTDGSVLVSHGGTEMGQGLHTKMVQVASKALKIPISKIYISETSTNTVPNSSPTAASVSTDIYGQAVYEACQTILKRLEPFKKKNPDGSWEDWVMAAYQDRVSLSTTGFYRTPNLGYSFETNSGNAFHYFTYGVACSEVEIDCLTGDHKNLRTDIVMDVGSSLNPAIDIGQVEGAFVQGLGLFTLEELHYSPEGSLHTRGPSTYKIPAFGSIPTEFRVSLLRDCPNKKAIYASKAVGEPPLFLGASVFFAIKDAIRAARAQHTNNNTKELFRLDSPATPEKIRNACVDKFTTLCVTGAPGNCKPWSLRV

[2] = biological target: T1, Xanthine dehydrogenase/oxidase; test: Mixed-type inhibition of bovine milk xanthine oxidase using hypoxanthine as substrate by Lineweaver-Burk plot analysis
[3] = biological target: T1, Xanthine dehydrogenase/oxidase; test: Inhibition of bovine milk xanthine oxidase using xanthine as substrate; conditions: read-out: I50
[4] = biological target: T1, Xanthine dehydrogenase/oxidase; test: Activity at bovine milk xanthine oxidase assessed as reduction of cytochrome c and phenazine methosulfate; conditions: cattle
[5] = biological target: T1, Xanthine dehydrogenase/oxidase; test: Mixed-type inhibition of bovine milk xanthine oxidase using xanthine as substrate by Lineweaver-Burk plot analysis
[6] = biological target: T1, Xanthine dehydrogenase/oxidase; test: Inhibition of bovine milk xanthine oxidase using xanthine as substrate at 10 times I50 preincubated for 1 hr at 4 degC measured after 10 fold dilution relative to control; conditions: cattle
[7] = biological target: T1, Xanthine dehydrogenase/oxidase; test: Activity at bovine milk xanthine oxidase assessed as reduction of 2,6-dichlorophenol-indophenol; conditions: cattle
[8] = Dissociation constant, pKa of the compound
[9] = biological target: T1, Xanthine dehydrogenase/oxidase; test: Non-competitive inhibition of bovine milk xanthine oxidase using hypoxanthine as substrate by Lineweaver-Burk plot analysis
[10] = biological target: T1, Xanthine dehydrogenase/oxidase; test: Inhibition of bovine milk xanthine oxidase using xanthine as substrate assessed as increase of I50 at pH 6.6 to 8.2; conditions: cattle
[11] = biological target: T1, Xanthine dehydrogenase/oxidase; test: Inhibition of bovine milk xanthine oxidase using xanthine as substrate assessed as increase of I50 at pH 8.2 to 8.8; conditions: cattle
[12] = biological target: T1, Xanthine dehydrogenase/oxidase; test: Non-competitive inhibition of bovine milk xanthine oxidase using xanthine as substrate by Lineweaver-Burk plot analysis
[13] = biological target: T1, Xanthine dehydrogenase/oxidase; test: Inhibition of bovine milk xanthine oxidase using xanthine as substrate assessed as increase of I50 at pH 6.6 to 7.6; conditions: cattle
[14] = biological target: T1, Xanthine dehydrogenase/oxidase; test: Inhibition of bovine milk xanthine oxidase using xanthine as substrate assessed as increase of I50 at pH 7.6 to 7.9; conditions: cattle
[15] = biological target: T1, Xanthine dehydrogenase/oxidase; test: Inhibition of bovine milk xanthine oxidase using xanthine as substrate assessed as increase of I50 at pH 6.6 to 7.5; conditions: cattle

inhibition (INH) [1] [%]	Ki [2] [µM]	IC50 [3] [µM]	Activity [4]	Ki [5] [µM]	inhibition (INH) [6] [%]	Activity [7]	pKa [8]	Ki [9] [µM]	inhibition (INH) [10]	inhibition (INH) [11]	Ki [12] [µM]	inhibition (INH) [13]	inhibition (INH) [14]	SMILES	inhibition (INH) [15]
50	0.019	0.043	Not Active	0.023	53	Not Active	–	–	–	–	–	–	–	Oc1cc(O)n2ncc(-c3ccc(Cl)cc3)c2n1	–
48	0.077	0.089	Not Active	0.085	47	Not Active	–	–	–	–	–	–	–	CC(=O)Nc1ccc(-c2cnn3c(O)cc(O)nc23)cc1	–
49	–	0.038	Not Active	–	47	Not Active	3.8	0.06	Active	Active	0.053	–	–	Oc1cc(O)n2ncc(-c3ccccc3)c2n1	–
53	31	15	Not Active	37	51	Not Active	–	–	–	–	–	–	–	O=[N+]([O-])c1cnn2c(O)cc(O)nc12	–
53	0.023	0.033	Not Active	0.026	52	Not Active	3.8	–	Active	Active	–	–	–	Oc1cc(O)n2ncc(-c3ccc(Br)cc3)c2n1	–
49	–	5	Not Active	–	47	Not Active	3.7	4.2	–	–	5.4	Active	Active	Oc1cc(O)n2nccc2n1	–
45	–	0.025	Not Active	–	46	Not Active	–	0.016	–	–	0.013	–	–	Oc1cc(O)n2ncc(-c3cccc4ccccc34)c2n1	–
48	0.019	0.025	Not Active	0.02	50	Not Active	–	–	–	–	–	–	–	Cc1cccc(-c2cnn3c(O)cc(O)nc23)c1	–
52	0.024	0.096	Not Active	0.017	55	Not Active	–	–	–	–	–	–	–	Cc1ccc(-c2cnn3c(O)cc(O)nc23)cc1	–
46	0.018	0.029	Not Active	0.023	49	Not Active	–	–	–	–	–	–	–	Oc1cc(O)n2ncc(-c3ccc4c(c3)OCO4)c2n1	–
–	–	–	Active	–	–	Active	7.6	–	–	–	–	–	–	O=c1[nH]c(=O)c2[nH]cnc2[nH]1 [XANTHINE]	–
53	–	0.043	Not Active	–	50	Not Active	–	0.031	–	–	0.026	–	–	Oc1cc(O)n2ncc(-c3cccnc3)c2n1	–
52	–	1.2	Not Active	–	50	Not Active	–	1.2	–	–	1.5	–	–	Oc1cc(O)n2ncc(Br)c2n1	–
44	–	1.4	Not Active	–	45	Not Active	–	1.8	–	–	2	–	–	Oc1cc(O)n2ncc(Cl)c2n1	–

SMILES	inhibition (INH) [1] [%]	Ki [2] [µM]	IC50 [3] [µM]	Activity [4]	Ki [5] [µM]	inhibition (INH) [6] [%]	Activity [7]	pKa [8]	Ki [9] [µM]	inhibition (INH) [10]	inhibition (INH) [11]	Ki [12] [µM]	inhibition (INH) [13]	inhibition (INH) [14]	inhibition (INH) [15]
Oc1ncnc2[nH]ncc12 [ALLOPURINOL]	100	–	–	Active	–	100	Active	9	–	–	–	–	–	–	Active
O=c1[nH]cnc2nc[nH]c12 [HYPOXANTHINE]	–	–	–	–	–	–	–	8.7	–	–	–	–	–	–	–
